# Bridge positions count the residues as written; N and C are the ends. Peptide text beside a SMILES is read from it.
# Assay: Solid-state chemical stability of amorphous and α-crystalline linaclotide (HPLC assay after storage at 40° C./75% RH)
# Format: physicochemical
# Details: for Degradation Products / Normalized Assay / Acetylation Product / Hydrolysis Product / Non-disulfide linked multimers / Water-Mediated Products: induction sealed 45 cc HDPE bottles; for Remaining fraction (not assay, not degradation products), may comprise multimers: 3 months at 40° C./75% RH
# Protocol: The relative chemical purity and stability of amorphous and crystalline linaclotide was studied using reverse phase high performance liquid chromatography (HPLC). The chemical identification was conducted using reverse phase high performance liquid chromatography coupled with mass spectroscopy (HPLC-MS). The mass spectroscopic analysis was performed at Enhance MS scan (EMS) mode with positive ionization and a scan range (m/z) of 600-1600.
# A Perkin Elmer series 200 LC instrument (Perkin Elmer, Waltham, Mass.) was used with a YMC Pro C18 column (150 mm×3.0 mm, 3 μm) (Waters Corporation, Milford, Mass.). The column temperature was set at 40° C. while the auto sampler temperature was maintained at 4° C. using a peltier tray. The injection volume was 50 μl. A gradient (0.6 ml/minute) run was used comprising of two solvents; A (97.9% Water, 2% Acetonitrile, 0.1% Trifluoroacetic Acid) and B (94.9% Acetonitrile, 5% Water, 0.1% Trifluoroacetic Acid). The gradient was set according to the scheme described in Table 10. The effluent was detected at 220 nm using a UV detector.
# The solid-state chemical stability of the α-crystalline form of linaclotide was then compared to that of amorphous form linaclotide. Known quantities of test materials were placed in 45 cc high-density polyethylene bottles. The bottles were induction sealed and placed in 40° C./75% RH stability chamber. Two bottles were then withdrawn at the time points of 2 weeks, at 1 month, at 2 months, and at 3 months, and were analyzed after adequate dilution for assay.
# [1] = 3 months storage, 40° C./75% RH
Compound,Degradation Products (1 Month at 40° C./75% RH) [Wt %],Normalized Assay (1 Month at 40° C./75% RH) [Wt %],Degradation Products (2 Months at 40° C./75% RH) [Wt %],Normalized Assay (2 Months at 40° C./75% RH) [Wt %],Degradation Products (2 Weeks at 40° C./75% RH) [Wt %],Normalized Assay (2 Weeks at 40° C./75% RH) [Wt %],Degradation Products (3 Months at 40° C./75% RH) [Wt %],Normalized Assay (3 Months at 40° C./75% RH) [Wt %],"Remaining fraction (not assay, not degradation products), may comprise multimers [%]",Acetylation Product [1] [Wt %],Hydrolysis Product [1] [Wt %],Non-disulfide linked multimers [1] [Wt %],Water-Mediated Products [1] [Wt %],"Degradation Products (Initial, solid state) [Wt %]","Normalized Assay (Initial, solid state) [Wt %]","Remaining fraction (not assay, not degradation products), may comprise multimers (listed as α-form linaclotide) [%]",Acid-induced hydrolysis (in words) [1],"Concentration of degradation products compared with amorphous linaclotide (in words) (40° C./75% RH, up to 3 months)","Multimer formation compared with amorphous linaclotide (in words) (40° C./75% RH, up to 3 months)","Stability profile compared with amorphous linaclotide (in words) (40° C./75% RH, up to 3 months)"
"C[C@@H]1NC(=O)[C@@H]2CCCN2C(=O)[C@H](CC(N)=O)NC(=O)[C@@H]2CSSC[C@H](N)C(=O)N[C@H]3CSSC[C@H](NC1=O)C(=O)N[C@@H]([C@@H](C)O)C(=O)NCC(=O)N[C@H](C(=O)N[C@@H](Cc1ccc(O)cc1)C(=O)O)CSSC[C@H](NC(=O)[C@H](Cc1ccc(O)cc1)NC(=O)[C@H](CCC(=O)O)NC3=O)C(=O)N2 [Amorphous Linaclotide, linaclotide] (H-CCEYCCNPACTGCY-OH; disulfide 1-6, 2-10, 5-13)",5.6,79.1,9.3,74.5,3.6,84.0,12.0,68.8,19.2,2.39,0.30,1.96,7.00,2.1,100.0,,,,,
"C[C@@H]1NC(=O)[C@@H]2CCCN2C(=O)[C@H](CC(N)=O)NC(=O)[C@@H]2CSSC[C@H](N)C(=O)N[C@H]3CSSC[C@H](NC1=O)C(=O)N[C@@H]([C@@H](C)O)C(=O)NCC(=O)N[C@H](C(=O)N[C@@H](Cc1ccc(O)cc1)C(=O)O)CSSC[C@H](NC(=O)[C@H](Cc1ccc(O)cc1)NC(=O)[C@H](CCC(=O)O)NC3=O)C(=O)N2 [α-Crystalline Linaclotide, linaclotide] (H-CCEYCCNPACTGCY-OH; disulfide 1-6, 2-10, 5-13)",3.8,91.9,5.1,89.7,2.6,94.8,7.5,88.4,,0.31,5.70,0.07,0.40,2.4,100.0,4.1,pronounced,significantly lower concentration of degradation products,significantly less multimer formation,substantially better stability profile than amorphous linaclotide

# Source: patent publication US8293704B2, “Crystalline form of linaclotide” (priority 2009, dated 2012)
